Results reported in patent publication US20260166039A1 (SCHRÖDINGER, INC., priority 2022, published 2026).

Assays:
[1] = molecular target: T1, Wee1 kinase domain (Homo sapiens, UniProt P30291); test: Wee1 Kinase Biochemical Assay (ADP-Glo); conditions: Wee1 kinase domain, 15 uM ATP, ADP-Glo
T1 construct: Wee1 kinase domain was purchased from Carna (catalog #05-177); purchased Carna 05-177
Procedure, shortened: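 1 nM enzyme; 15 uM ATP; 2 ng/mL poly(Lys,Tyr 4:1); 40 mM Tris-HCl, 20 mM MgCl2, 0.1 mg/mL BSA, 2 mM DTT; 4 h, 25 °C; ADP-Glo; % inhibition vs DMSO and saturating positive-control wells.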

[2] = tested on: phosphorylation of Cdc2 Y15 (Wee1 substrate) in A427 cells; test: Phosphorylated Cdc2 MSD Electrochemiluminescence Assay; format: cell-based; conditions: Homo sapiens, A-427, pCDC2 MSD
Procedure, shortened: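 A427 cells (RPMI 1640, 10% FBS) treated 20 h after plating with 3-fold serial compound dilutions, in duplicate, 37 °C, 5% CO2; total incubation 6 h. Lysate Cdc2 pY15 read by MSD electrochemiluminescence sandwich immunoassay; % remaining signal normalised to DMSO (high) and reference Wee1 inhibitor (low) controls.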

T1 sequence (P30291 299-569 limits assumed): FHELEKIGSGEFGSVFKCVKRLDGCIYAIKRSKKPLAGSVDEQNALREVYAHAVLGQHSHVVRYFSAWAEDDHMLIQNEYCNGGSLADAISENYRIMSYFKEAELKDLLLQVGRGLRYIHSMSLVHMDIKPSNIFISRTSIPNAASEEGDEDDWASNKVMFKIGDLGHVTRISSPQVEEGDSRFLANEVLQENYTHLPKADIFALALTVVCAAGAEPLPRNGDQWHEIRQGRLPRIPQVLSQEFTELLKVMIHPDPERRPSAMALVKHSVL

Row | Structure (SMILES) | IC50 [1] [nM] | IC50 [2] [nM]
1 | C[C@H]1COC(=O)N1c1cccc(N2c3nc(Nc4cnn(C5CCNCC5)c4)ncc3[C@@]3(C)COC(C)(C)C[C@@H]23)n1 (single isomer, unassigned) [Example 255] | < 10 | 100 to 1000
2 | C[C@H]1COC(=O)N1c1cccc(N2c3nc(Nc4ccc([C@@H]5CCNC5)nc4)ncc3[C@@]3(C)COC(C)(C)C[C@@H]23)n1 (single isomer, unassigned) [Example 257] | < 10 | 100 to 1000
3 | C[C@H]1COC(=O)N1c1cccc(N2c3nc(Nc4ccc([C@H]5CCNC5)nc4)ncc3[C@@]3(C)COC(C)(C)C[C@@H]23)n1 (single isomer, unassigned) [Example 259] | < 10 | 100 to 1000
4 | C[C@H]1COC(=O)N1c1cccc(N2c3nc(Nc4ccc(N5CCNCC5)cc4)ncc3[C@@]3(C)COC(C)(C)C[C@@H]23)n1 (single isomer, unassigned) [Example 260] | < 10 | 100 to 1000
5 | C[C@H]1COC(=O)N1c1cccc(N2c3nc(Nc4ccc([C@H]5CCN(C)C5)nc4)ncc3[C@]3(C)COC(C)(C)C[C@H]23)n1 (single isomer, unassigned) [Example 262] | 100 to 1000 | 100 to 1000
6 | C[C@H]1COC(=O)N1c1cccc(N2c3nc(Nc4ccc([C@H]5CCN(C)C5)nc4)ncc3[C@@]3(C)COC(C)(C)C[C@@H]23)n1 (single isomer, unassigned) [Example 263] | < 10 | < 100
7 | C[C@H]1COC(=O)N1c1cccc(N2c3nc(Nc4ccc([C@@H]5CCN(C)C5)nc4)ncc3[C@]3(C)COC(C)(C)C[C@H]23)n1 (single isomer, unassigned) [Example 264] | 10 to 100 | 100 to 1000
8 | C[C@H]1COC(=O)N1c1cccc(N2c3nc(Nc4ccc([C@@H]5CCN(C)C5)nc4)ncc3[C@@]3(C)COC(C)(C)C[C@@H]23)n1 (single isomer, unassigned) [Example 265] | < 10 | < 100
9 | Cc1cc(Nc2ncc3c(n2)N(c2cccc(N4C(=O)OC[C@@H]4C)n2)[C@@H]2CC(C)(C)OC[C@]32C)ccc1[C@H]1CCNC1 (single isomer, unassigned) [Example 267] | < 10 | 100 to 1000
10 | Cc1cc(Nc2ncc3c(n2)N(c2cccc(N4C(=O)OC[C@@H]4C)n2)[C@@H]2CC(C)(C)OC[C@]32C)ccc1[C@@H]1CCNC1 (single isomer, unassigned) [Example 269] | < 10 | 100 to 1000
11 | C[C@H]1COC(=O)N1c1cccc(N2c3nc(Nc4ccc(N5CCN(C)CC5=O)cc4)ncc3[C@@]3(C)COC(C)(C)C[C@@H]23)n1 (single isomer, unassigned) [Example 271] | < 10 | 100 to 1000
12 | C[C@H]1COC(=O)N1c1cccc(N2c3nc(Nc4ccn(C5CCN(C)CC5)c(=O)c4)ncc3[C@@]3(C)COC(C)(C)C[C@@H]23)n1 (single isomer, unassigned) [Example 273] | < 10 | 100 to 1000
13 | C[C@H]1COC(=O)N1c1cccc(N2c3nc(Nc4ccc([C@@H]5CCNC5)cc4)ncc3[C@@]3(C)COC(C)(C)C[C@@H]23)n1 (single isomer, unassigned) [Example 275] | < 10 | 100 to 1000
14 | C[C@H]1COC(=O)N1c1cccc(N2c3nc(Nc4ccc(N5C[C@H]6C[C@@H]5CN6)cc4)ncc3[C@@]3(C)COC(C)(C)C[C@@H]23)n1 (single isomer, unassigned) [Example 277] | < 10 | 100 to 1000
15 | C[C@H]1COC(=O)N1c1cccc(N2c3nc(Nc4ccc([C@H]5CCNC5)cc4)ncc3[C@@]3(C)COC(C)(C)C[C@@H]23)n1 (single isomer, unassigned) [Example 279] | < 10 | 100 to 1000
16 | C[C@H]1COC(=O)N1c1cccc(N2c3nc(Nc4ccc(O[C@H]5CCN(C)C5)nc4)ncc3[C@@]3(C)COC(C)(C)C[C@@H]23)n1 (single isomer, unassigned) [Example 281] | < 10 | 100 to 1000
17 | C[C@H]1COC(=O)N1c1cccc(N2c3nc(Nc4ccc(O[C@@H]5CCN(C)C5)nc4)ncc3[C@@]3(C)COC(C)(C)C[C@@H]23)n1 (single isomer, unassigned) [Example 283] | < 10 | 100 to 1000
18 | C[C@H]1COC(=O)N1c1cccc(N2c3nc(Nc4ccc(O[C@H]5CCNC5)nc4)ncc3[C@@]3(C)COC(C)(C)C[C@@H]23)n1 (single isomer, unassigned) [Example 285] | < 10 | 100 to 1000
19 | C[C@H]1COC(=O)N1c1cccc(N2c3nc(Nc4ccc(O[C@@H]5CCNC5)nc4)ncc3[C@@]3(C)COC(C)(C)C[C@@H]23)n1 (single isomer, unassigned) [Example 287] | < 10 | 100 to 1000
20 | Cc1cc(Nc2ncc3c(n2)N(c2cccc(N4C(=O)OC[C@@H]4C)n2)[C@@H]2CC(C)(C)OC[C@]32C)ccc1N1C[C@H]2C[C@@H]1CN2C (single isomer, unassigned) [Example 289] | < 10 | 100 to 1000
21 | C[C@H]1COC(=O)N1c1cccc(N2c3nc(Nc4ccc(N5C[C@H]6C[C@@H]5CN6C)c(F)c4)ncc3[C@@]3(C)COC(C)(C)C[C@@H]23)n1 (single isomer, unassigned) [Example 291] | < 10 | 100 to 1000
22 | C[C@H]1COC(=O)N1c1cccc(N2c3nc(Nc4ccc(N5C[C@@H]6C[C@H]5CN6C)c(F)c4)ncc3[C@@]3(C)COC(C)(C)C[C@@H]23)n1 (single isomer, unassigned) [Example 293] | < 10 | 100 to 1000
23 | Cc1cc(Nc2ncc3c(n2)N(c2cccc(N4C(=O)OC[C@@H]4C)n2)[C@@H]2CC(C)(C)OC[C@]32C)ccc1N1C[C@@H]2C[C@H]1CN2C (single isomer, unassigned) [Example 295] | < 10 | 100 to 1000
24 | C[C@H]1COC(=O)N1c1cccc(N2c3nc(Nc4ccc(C5CCN(C)CC5)nc4)ncc3[C@@]3(C)COC(C)(C)C[C@@H]23)n1 (single isomer, unassigned) [Example 297] | < 10 | 100 to 1000
25 | C[C@H]1COC(=O)N1c1cccc(N2c3nc(Nc4ccc(N5CCCN(C)CC5)cc4)ncc3[C@@]3(C)COC(C)(C)C[C@@H]23)n1 (single isomer, unassigned) [Example 299] | < 10 | 100 to 1000
26 | C[C@H]1COC(=O)N1c1cccc(N2c3nc(Nc4ccc(C(C)(C)C)nc4)ncc3[C@@]3(C)COC(C)(C)C[C@@H]23)n1 (single isomer, unassigned) [Example 301] | < 10 | 1000 to 10000
27 | C[C@H]1COC(=O)N1c1cccc(N2c3nc(Nc4ccc(C5(C)COC5)cc4)ncc3[C@@]3(C)COC(C)(C)C[C@@H]23)n1 (single isomer, unassigned) [Example 303] | < 10 | 100 to 1000
28 | C[C@H]1COC(=O)N1c1cccc(N2c3nc(Nc4ccc([C@@H]5CCN(C)C5)cc4)ncc3[C@@]3(C)COC(C)(C)C[C@@H]23)n1 (single isomer, unassigned) [Example 305] | < 10 | 100 to 1000
29 | C[C@H]1COC(=O)N1c1cccc(N2c3nc(Nc4ccc([C@H]5CCN(C)C5)cc4)ncc3[C@@]3(C)COC(C)(C)C[C@@H]23)n1 (single isomer, unassigned) [Example 306] | < 10 | 100 to 1000
30 | C[C@H]1COC(=O)N1c1cccc(N2c3nc(Nc4ccc(C5CNC5)cc4)ncc3[C@@]3(C)COC(C)(C)C[C@@H]23)n1 (single isomer, unassigned) [Example 310] | < 10 | 100 to 1000
